{
  "source": "paper PMC7156724",
  "about": "“Potent BRD4 inhibitor suppresses cancer cell-macrophage interaction” (Nature Communications, 2020)",
  "key": {"[1]": {"test_system": "A2780 OC cells and TAMs", "assay": "Orthotopic mouse OC model (intraperitoneal A2780 cells, with or without TAMs): tumor weight, ascitic fluid, IF and FACS", "format": "in vivo", "text": "Shown are immunofluorescent staining of CD68 (macrophage marker, red) and E-Cadherin (cancer cells, green) (a) and quantification of CD68 positive cells (b) in vehicle, NHWD-870 treated H526 (n = 6) and A2780 (n = 5) tumors from Fig. 3a, b, respectively. Scale bar is 100 μm. […] Shown are representative immunofluorescent staining of Ki67 and CD68 (c) and quantification of percentage of Ki67+ cells in CD68+ cells (d). Scale bar is 30 μm. Data are presented as mean ± SEM of five different tumors. e Schematics of the animal experiments using an orthotopic mouse OC model, established by intraperitoneally injecting human A2780 cells into female recipient nude mice. Mice were then either untreated (Ctrl) or treated with NHWD-870 (PO, QD, 3 mg/kg) for 45 days. Half of the recipient mice received A2780 cells plus TAMs isolated from tumors of OC-bearing donor mice. f, g Tumor weights (f) and ascitic fluid volumes (g) at day 45 for mice in (e). […] Shown are representative immunofluorescent staining of Ki67 and CD68 (h) and quantification of Ki67^+CD68^− (i) or Ki67^+CD68^+ (j), or CD68^+ cells (k). Scale bar is 50 μm. Data are presented as mean ± SEM from five different mice. p values were calculated using two-tailed, unpaired t tests in this figure. *p < 0.05; **p < 0.01; ***p < 0.001. Source data are provided as a Source Data file.\nTo extend our findings, we examined the effects of NHWD-870 in an orthotopic mouse OC model, in which we intraperitoneally injected A2780 OC cells, alone or together with F4/80^+CD11b^+CD206^+ TAMs isolated from the tumor tissues of OC-bearing donor mice 3 days later (Fig. 4e). […] These phenotypes were due to increased proliferation of both tumor cells and macrophages (Ki67^+CD68^− and Ki67^+CD68^+ cells, respectively) (Fig. 4h–i, Ctrl+TAM vs Ctrl). […] The inability to rescue was not due to the limited amount of TAMs (Fig. 4k, CD68^+ cells and Supplementary Fig.11c, d, CD11b^+CD206^+ cells, NHWD-870+TAM vs Ctrl), but likely due to the limited number of proliferating TAMs (Fig. 4j, Ki67^+CD68^+ cells, NHWD-870+TAM vs Ctrl).\n4–6 weeks old female BALB/c nude mice were used for most experiments, with the exception of 6–8 weeks old female C57BL/6 mice were used for B16F10 experiments, and 6–8 weeks old male BALB/c nude mice and SD rats were used for pharmacokinetic experiments. All animals were purchased from Shanghai SIPPR-Bk Lab Animal Co., Ltd. All animals were housed under a regimen of 12 h light/12 h dark cycles and specific pathogen-free conditions. 5×10^6 NCI-H526, ES-2, MDA-MB231, A2780, A375, B16F10, and TMD-8 cells (0.1 ml) were injected subcutaneously into female nude mice. The melanoma patient-derived xenograft model was derived from a human melanoma sample (BRAF, NARS and NF1 wild type, and p53 mutant) removed from a patient in Xiangya Hospital. Surgically removed tumor fragments were implanted subcutaneously into female NSG mice. […] Mouse body weight and tumor sizes were measured every 3 days. […] Ascitic volume and tumor weight were measured by an electronic balance. All the procedures were evaluated and approved by the Institutional Animal Care and Use Committee of Central South University and Yale University. […]\nwith anti-CD45, CD11b and CD206 followed by FACS analysis. Shown are representative FACS plots (c) and quantification of the percentage of CD11b+CD206+ cells (d). Data are presented as mean ± SEM from 5 different mice. p values were calculated using two-tailed, unpaired t tests. **, p<0.01; ***, p<0.001. […]"}, "[2]": {"test_system": "MDA-MB231 TNBC", "assay": "MDA-MB231 TNBC xenograft growth", "format": "in vivo, mouse", "parameters": "MDA-MB231 tumor size (Sup Fig.9d; quantity and unit not given): unit not given here", "protocol": "4–6 weeks old female BALB/c nude mice were used for most experiments, with the exception of 6–8 weeks old female C57BL/6 mice were used for B16F10 experiments, and 6–8 weeks old male BALB/c nude mice and SD rats were used for pharmacokinetic experiments. All animals were purchased from Shanghai SIPPR-Bk Lab Animal Co., Ltd. All animals were housed under a regimen of 12 h light/12 h dark cycles and specific pathogen-free conditions. 5×10^6 NCI-H526, ES-2, MDA-MB231, A2780, A375, B16F10, and TMD-8 cells (0.1 ml) were injected subcutaneously into female nude mice. The melanoma patient-derived xenograft model was derived from a human melanoma sample (BRAF, NARS and NF1 wild type, and p53 mutant) removed from a patient in Xiangya Hospital. Surgically removed tumor fragments were implanted subcutaneously into female NSG mice. When the tumors grew to ~1000 mm^3, they were harvested and cryopreserved or immediately re-implanted for expansion or experiments. Mouse body weight and tumor sizes were measured every 3 days. Once the tumors grew to 150–200 mm^3, mice were treated with the compounds as described in the Figures. 1 × 10^6 A2780 cells (1 ml) were injected into the abdominal cavity of nude mice. Ascitic volume and tumor weight were measured by an electronic balance. All the procedures were evaluated and approved by the Institutional Animal Care and Use Committee of Central South University and Yale University.\nSupplementary Figure 9. […]\nPO, oral administration; QD, once daily; BID, twice daily; D, day. (c,d) Tumor growth curves for ES2 ovarian tumor (c), MDA-MB231 breast tumor (d) bearing mice treated with the indicated compounds for 21 days. Compounds were orally administrated once daily. Data are presented as mean ± SEM from 6 different mice. p values were calculated using two-tailed, unpaired t tests.\n**, p<0.01; ***, p<0.001. Source data are provided as a Source Data file. […]"}, "[3]": {"settings": "day 45, PO, QD, 3 mg/kg, +TAM, 3 mg/kg"}},
  "note": "Several values for one entry are separate records, joined by “and”; a condition that tells them apart may be missing. Equal entries are not always repeated.",
  "data": [
    {"smiles": "Cc1nnn(C)c1-c1cnc2c3c4cnn(C)c4ccc3n([C@H](c3ccccc3)C3CCOCC3)c2c1", "note": "[NHWD-870]", "values": [
      {"measurement": "quantification of CD68+ cells", "setting": "[1]; [3]", "value": "15 and 17.9 and 19.9 and 12 and 16.7"},
      {"measurement": "quantification of Ki67+CD68− cells", "setting": "[1]; [3]", "value": "10 and 7 and 13 and 9"},
      {"measurement": "fold reduction, in vivo effects on TAMs", "setting": "[1]; in vivo", "value": "~ 16 fold"},
      {"measurement": "inhibition of proliferating TAMs", "setting": "[1]; mouse OC model, Fig. 4j", "value": 94, "unit": "%"},
      {"measurement": "proliferating TAMs (Ki67+CD68+ cells), mean", "setting": "[1]; mouse OC model, Fig. 4j, Ctrl […]", "value": 0.16, "unit": "%"},
      {"measurement": "MDA-MB231 tumor size (Sup Fig.9d; quantity and unit not given)", "setting": "[2]; 1mg/kg p.o. QD x 21D, day 0, individual animals", "value": "279.42 and 121.19 and 223.85 and 207.81 and 142.25 and 116.01"},
      {"measurement": "MDA-MB231 tumor size (Sup Fig.9d; quantity and unit not given)", "setting": "[2]; 1mg/kg p.o. QD x 21D, day 3, individual animals", "value": "342.36 and 216.69 and 301.84 and 236.23 and 182.39 and 129.14"},
      {"measurement": "MDA-MB231 tumor size (Sup Fig.9d; quantity and unit not given)", "setting": "[2]; 1mg/kg p.o. QD x 21D, day 7, individual animals", "value": "454.4 and 329.94 and 520.71 and 309.24 and 176.3 and 192.56"},
      {"measurement": "MDA-MB231 tumor size (Sup Fig.9d; quantity and unit not given)", "setting": "[2]; 1mg/kg p.o. QD x 21D, day 10, individual animals", "value": "681 and 486.76 and 545.06 and 482.5 and 217.9 and 268.16"},
      {"measurement": "MDA-MB231 tumor size (Sup Fig.9d; quantity and unit not given)", "setting": "[2]; 1mg/kg p.o. QD x 21D, day 14, individual animals", "value": "889.946 and 639.335 and 784.126 and 538.093 and 253.479 and 345.127"},
      {"measurement": "MDA-MB231 tumor size (Sup Fig.9d; quantity and unit not given)", "setting": "[2]; 1mg/kg p.o. QD x 21D, day 17, individual animals", "value": "973.96 and 796.38 and 1110.48 and 713.45 and 300.77 and 432.71"},
      {"measurement": "MDA-MB231 tumor size (Sup Fig.9d; quantity and unit not given)", "setting": "[2]; 1mg/kg p.o. QD x 21D, day 21, individual animals", "value": "1038.8 and 904.78 and 1426.58 and 1004.43 and 413.96 and 626.93"},
      {"measurement": "MDA-MB231 tumor size (Sup Fig.9d; quantity and unit not given)", "setting": "[2]; 3mg/kg p.o. QD x 21D, day 0, individual animals", "value": "118.16 and 163.39 and 132.22 and 223.66 and 238.14 and 193.21"},
      {"measurement": "MDA-MB231 tumor size (Sup Fig.9d; quantity and unit not given)", "setting": "[2]; 3mg/kg p.o. QD x 21D, day 3, individual animals", "value": "111.38 and 180.22 and 170.04 and 238.46 and 333.75 and 199.82"},
      {"measurement": "MDA-MB231 tumor size (Sup Fig.9d; quantity and unit not given)", "setting": "[2]; 3mg/kg p.o. QD x 21D, day 7, individual animals", "value": "184.36 and 185.35 and 194.47 and 370.49 and 294.2 and 222.64"},
      {"measurement": "MDA-MB231 tumor size (Sup Fig.9d; quantity and unit not given)", "setting": "[2]; 3mg/kg p.o. QD x 21D, day 10, individual animals", "value": "223.77 and 229.36 and 217.46 and 450.48 and 331.57 and 251.49"},
      {"measurement": "MDA-MB231 tumor size (Sup Fig.9d; quantity and unit not given)", "setting": "[2]; 3mg/kg p.o. QD x 21D, day 14, individual animals", "value": "325.631 and 331.431 and 303.664 and 453.402 and 392.114 and 282.288"},
      {"measurement": "MDA-MB231 tumor size (Sup Fig.9d; quantity and unit not given)", "setting": "[2]; 3mg/kg p.o. QD x 21D, day 17, individual animals", "value": "488.17 and 465.37 and 409.38 and 652.35 and 540.67 and 429.56"},
      {"measurement": "MDA-MB231 tumor size (Sup Fig.9d; quantity and unit not given)", "setting": "[2]; 3mg/kg p.o. QD x 21D, day 21, individual animals", "value": "586.22 and 557.41 and 558.02 and 759.6 and 643.46 and 481.28"},
      {"measurement": "effect on tumor growth", "setting": "[2]; MDA-MB231 TNBC, oral once daily 21 days", "value": "strong tumor-suppressive effects"}
    ]}
  ]
}
